# Measurements published in ChEMBL document CHEMBL1134036, “Discovery and SAR of diarylsulfide cyclopropylamide LFA-1/ICAM-1 interaction antagonists” (Bioorg Med Chem Lett, 2001).
# Legend:
# [1] = target: T1, Intercellular adhesion molecule (ICAM-1), Integrin alpha-L/beta-2 (Homo sapiens, UniProt P05107+P20701); experiment: Ability to block the adherence of leukocyte function-associated antigen-1 (LFA-1) expressing JY-8 cells and intercellular adhesion molecule (ICAM-1) by 50% in absence of serum; assay type: cell-based
# T1 sequence (P20701 whole entry): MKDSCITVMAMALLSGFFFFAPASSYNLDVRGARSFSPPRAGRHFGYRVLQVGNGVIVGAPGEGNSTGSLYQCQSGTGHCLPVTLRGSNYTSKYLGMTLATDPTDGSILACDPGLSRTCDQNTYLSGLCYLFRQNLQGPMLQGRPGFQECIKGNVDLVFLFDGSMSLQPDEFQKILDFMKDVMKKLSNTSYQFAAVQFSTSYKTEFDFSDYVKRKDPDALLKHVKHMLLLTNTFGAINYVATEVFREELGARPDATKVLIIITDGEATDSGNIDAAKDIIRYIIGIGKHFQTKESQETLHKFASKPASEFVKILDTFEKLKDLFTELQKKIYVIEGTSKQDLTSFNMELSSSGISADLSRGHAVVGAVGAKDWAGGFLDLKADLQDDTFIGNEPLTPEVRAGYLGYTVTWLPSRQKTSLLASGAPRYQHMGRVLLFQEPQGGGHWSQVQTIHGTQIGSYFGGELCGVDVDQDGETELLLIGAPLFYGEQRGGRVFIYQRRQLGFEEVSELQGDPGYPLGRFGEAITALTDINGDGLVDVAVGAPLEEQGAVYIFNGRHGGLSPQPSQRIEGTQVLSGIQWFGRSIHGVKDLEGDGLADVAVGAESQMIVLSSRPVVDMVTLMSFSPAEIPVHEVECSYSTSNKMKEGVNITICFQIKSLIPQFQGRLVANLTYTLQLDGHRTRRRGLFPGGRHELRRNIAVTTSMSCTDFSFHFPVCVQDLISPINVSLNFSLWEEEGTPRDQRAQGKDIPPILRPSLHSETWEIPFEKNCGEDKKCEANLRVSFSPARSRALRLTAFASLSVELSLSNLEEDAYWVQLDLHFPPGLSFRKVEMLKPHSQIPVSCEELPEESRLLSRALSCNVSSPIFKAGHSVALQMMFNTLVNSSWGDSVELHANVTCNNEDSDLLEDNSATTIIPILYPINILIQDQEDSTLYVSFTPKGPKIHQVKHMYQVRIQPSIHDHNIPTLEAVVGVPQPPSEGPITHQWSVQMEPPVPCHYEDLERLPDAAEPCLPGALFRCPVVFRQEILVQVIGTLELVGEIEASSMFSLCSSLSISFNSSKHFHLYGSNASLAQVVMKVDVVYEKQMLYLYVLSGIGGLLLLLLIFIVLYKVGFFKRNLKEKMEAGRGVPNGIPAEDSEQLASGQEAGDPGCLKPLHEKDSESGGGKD
# T1 sequence (P05362 whole entry, further chain): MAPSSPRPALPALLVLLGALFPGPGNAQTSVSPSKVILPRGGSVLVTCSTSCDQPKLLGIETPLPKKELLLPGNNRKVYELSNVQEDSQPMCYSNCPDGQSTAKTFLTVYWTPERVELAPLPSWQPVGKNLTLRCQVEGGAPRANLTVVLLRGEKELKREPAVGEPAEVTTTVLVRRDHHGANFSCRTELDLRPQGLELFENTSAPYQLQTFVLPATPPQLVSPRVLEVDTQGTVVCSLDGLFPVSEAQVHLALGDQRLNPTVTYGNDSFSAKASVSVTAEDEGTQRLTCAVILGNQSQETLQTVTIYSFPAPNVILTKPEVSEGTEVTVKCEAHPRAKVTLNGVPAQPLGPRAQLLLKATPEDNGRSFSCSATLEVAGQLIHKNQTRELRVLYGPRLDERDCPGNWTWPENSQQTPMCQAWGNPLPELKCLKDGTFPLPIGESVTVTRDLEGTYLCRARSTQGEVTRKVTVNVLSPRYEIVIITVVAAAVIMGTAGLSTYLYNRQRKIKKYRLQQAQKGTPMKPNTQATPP
# T1 sequence (P05107 whole entry): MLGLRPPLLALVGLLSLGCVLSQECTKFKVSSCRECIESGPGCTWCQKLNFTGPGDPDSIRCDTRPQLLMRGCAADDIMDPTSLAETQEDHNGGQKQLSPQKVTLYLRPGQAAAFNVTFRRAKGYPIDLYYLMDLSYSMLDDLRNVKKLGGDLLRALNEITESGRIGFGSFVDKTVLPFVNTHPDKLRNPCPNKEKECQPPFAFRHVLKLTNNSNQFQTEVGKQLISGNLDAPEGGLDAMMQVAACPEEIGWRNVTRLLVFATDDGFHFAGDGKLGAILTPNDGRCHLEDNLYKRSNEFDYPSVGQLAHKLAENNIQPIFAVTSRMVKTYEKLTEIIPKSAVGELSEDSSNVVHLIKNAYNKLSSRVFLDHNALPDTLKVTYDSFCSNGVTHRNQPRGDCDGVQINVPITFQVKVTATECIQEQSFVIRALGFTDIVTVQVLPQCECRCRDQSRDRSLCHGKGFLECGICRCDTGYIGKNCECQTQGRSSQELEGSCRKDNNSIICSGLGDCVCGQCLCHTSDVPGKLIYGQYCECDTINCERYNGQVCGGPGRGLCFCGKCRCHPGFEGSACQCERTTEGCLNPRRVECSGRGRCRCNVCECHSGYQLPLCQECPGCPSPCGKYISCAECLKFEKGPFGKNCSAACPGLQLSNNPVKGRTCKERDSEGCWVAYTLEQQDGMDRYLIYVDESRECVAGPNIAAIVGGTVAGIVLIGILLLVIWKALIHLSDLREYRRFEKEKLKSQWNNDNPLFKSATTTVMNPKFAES
# [2] = target: T2, Intercellular adhesion molecule (ICAM-1), Integrin alpha-L/beta-2 (Homo sapiens) (UniProt P20701+P05362+P05107); settings: JY-8
# Description: 80% inhibition of JY-8 cell adhesion to ICAM-1 via leukocyte function-associated antigen-1 (LFA-1) withouot serum
# [3] = target: T2, Intercellular adhesion molecule (ICAM-1), Integrin alpha-L/beta-2 (Homo sapiens); settings: JY-8; remark: listed apart in the source
# Description: 70% inhibition of JY-8 cell adhesion to ICAM-1 via leukocyte function-associated antigen-1 (LFA-1) without serum
# [4] = target: T1, Intercellular adhesion molecule (ICAM-1), Integrin alpha-L/beta-2; experiment: 50% inhibition of JY-8 cell adhesion to ICAM-1 via leukocyte function-associated antigen-1 (LFA-1) with 50% FBS; assay type: cell-based
# [5] = target: T2, Intercellular adhesion molecule (ICAM-1), Integrin alpha-L/beta-2 (Homo sapiens); settings: 50% FBS
# Description: 80% inhibition of JY-8 cell adhesion to ICAM-1 via leukocyte function-associated antigen-1 (LFA-1) with 50% FBS
# [6] = target: T2, Intercellular adhesion molecule (ICAM-1), Integrin alpha-L/beta-2 (Homo sapiens); settings: JY-8; remark: listed apart in the source
# Description: 70% inhibition of JY-8 cell adhesion to ICAM-1 via leukocyte function-associated antigen-1 (LFA-1) with 50% FBS
# [7] = Cmax of compound at 5 mg/kg after po administration was determined in rat; assay type: ADME, organism-based; set-up: dose 5 mg/kg, route oral; settings: in vivo
# [8] = Oral bioavailability of compound at 5 mg/kg after po administration was determined in rat; assay type: ADME, organism-based; settings: in vivo
# [9] = Half life of compound at 5 mg/kg after po administration was determined in rat; assay type: ADME, organism-based; set-up: dose 5 mg/kg, route oral; settings: in vivo
smiles,measurement,setting,value
O=C(O)C1CCN(c2ccccc2Sc2ccc(C3CC3C(=O)NCCCN3CCCC3=O)cc2C(F)(F)F)CC1 (stereo unspecified),IC50,[1],620 nM
O=C(NCCCN1CCCC1=O)C1CC1c1ccc(Sc2ccccc2N2CCCCC2)c(C(F)(F)F)c1 (stereo unspecified),IC50,[1],40 nM
O=C(O)C1CCCN(c2ccccc2Sc2ccc(C3CC3C(=O)NCCCN3CCCC3=O)cc2C(F)(F)F)C1 (stereo unspecified),IC50,[1],50 nM
CCOC(=O)C1CCN(c2ccccc2Sc2ccc(C3CC3C(=O)NCCCN3CCCC3=O)cc2C(F)(F)F)CC1 (stereo unspecified),IC50,[1],115 nM
CN1CCN(c2ccccc2Sc2ccc(C3CC3C(=O)NCCCN3CCCC3=O)cc2C(F)(F)F)CC1 (stereo unspecified),IC50,[1],200 nM
CCOC(=O)C1CCCN(c2ccccc2Sc2ccc(C3CC3C(=O)NCCCN3CCCC3=O)cc2C(F)(F)F)C1 (stereo unspecified),IC50,[1],100 nM
O=C(NCCCN1CCCC1=O)C1CC1c1ccc(Sc2ccccc2N2CCOCC2)c(C(F)(F)F)c1 (stereo unspecified),IC50,[1],15 nM
O=C(NCCCN1CCCC1=O)C1CC1c1ccc(Sc2ccccc2N2CCCC2)c(C(F)(F)F)c1 (stereo unspecified),IC50,[1],32 nM
"CC(C)c1ccccc1Sc1ccc(C2CC2C(=O)NCCC(=O)O)c(Cl)c1Cl (single isomer, unassigned)",IC50,[1],34 nM
"CC(C)c1ccccc1Sc1ccc(C2CC2C(=O)N2CCCCC2C(=O)O)c(Cl)c1Cl (single isomer, unassigned)",IC50,[1],33 nM
"CC(C)c1ccccc1Sc1ccc(C2CC2C(=O)N2CCC(C(=O)O)CC2)c(Cl)c1Cl (single isomer, unassigned)",IC50,[1],21 nM
"CC(C)c1ccccc1Sc1ccc(C2CC2C(=O)NCC(=O)O)c(Cl)c1Cl (single isomer, unassigned)",IC50,[1],33 nM
CC(C)c1ccccc1Sc1ccc(C2CC2C(=O)N2CCCC(C(=O)O)C2)c(Cl)c1Cl (stereo in doubt),IC50,[1],17 nM
CC(C)c1ccccc1Sc1ccc(C2CC2C(=O)NCCCC(=O)O)c(Cl)c1Cl (stereo in doubt),IC50,[1],26 nM
CC(C)c1ccccc1Sc1ccc(C2CC2C(=O)NCCCN2CCCC2=O)c(Cl)c1Cl (stereo in doubt),IC50,[1],6 nM
CC(C)c1ccccc1Sc1ccc(C2CC2C(=O)NCCCN2CCCC2=O)c(Cl)c1Cl (stereo in doubt; 12a) [listing 1 of 2 here],IC50,[1],7 nM
CC(C)c1ccccc1Sc1ccc(C2CC2C(=O)NCCCN2CCCC2=O)c(Cl)c1Cl (stereo in doubt; 12a) [listing 2 of 2 here],IC80,[2],63 nM
same,IC70,[3],40 nM
CC(C)c1ccccc1Sc1ccc(C2CC2C(=O)NCC(=O)O)c(Cl)c1Cl (stereo in doubt; 13a) [listing 1 of 2 here],IC50,[1],12 nM
CC(C)c1ccccc1Sc1ccc(C2CC2C(=O)NCC(=O)O)c(Cl)c1Cl (stereo in doubt; 13a) [listing 2 of 2 here],IC80,[2],95 nM
same,IC70,[3],50 nM
CC(C)c1ccccc1Sc1ccc(C2CC2C(=O)NCCC(=O)O)c(Cl)c1Cl (stereo in doubt; 14a) [listing 1 of 2 here],IC50,[1],8 nM
CC(C)c1ccccc1Sc1ccc(C2CC2C(=O)NCCC(=O)O)c(Cl)c1Cl (stereo in doubt; 14a) [listing 2 of 2 here],IC80,[2],54 nM
same,IC70,[3],26 nM
CC(C)c1ccccc1Sc1ccc(C2CC2C(=O)NCCCC(=O)O)c(Cl)c1Cl (stereo in doubt; 15a) [listing 1 of 2 here],IC50,[1],7 nM
CC(C)c1ccccc1Sc1ccc(C2CC2C(=O)NCCCC(=O)O)c(Cl)c1Cl (stereo in doubt; 15a) [listing 2 of 2 here],IC80,[2],9 nM
same,IC70,[3],16 nM
CC(C)c1ccccc1Sc1ccc(C2CC2C(=O)N2CCCCC2C(=O)O)c(Cl)c1Cl (stereo in doubt; 16a) [listing 1 of 2 here],IC50,[4],1480 nM
same,IC50,[1],13 nM
CC(C)c1ccccc1Sc1ccc(C2CC2C(=O)N2CCCCC2C(=O)O)c(Cl)c1Cl (stereo in doubt; 16a) [listing 2 of 2 here],IC80,[2],110 nM
same,IC80,[5],8820 nM
same,IC70,[6],3520 nM
same,IC70,[3],55 nM
CC(C)c1ccccc1Sc1ccc(C2CC2C(=O)N2CCCC(C(=O)O)C2)c(Cl)c1Cl (stereo in doubt; 17a) [listing 1 of 2 here],IC50,[1],6 nM
CC(C)c1ccccc1Sc1ccc(C2CC2C(=O)N2CCCC(C(=O)O)C2)c(Cl)c1Cl (stereo in doubt; 17a) [listing 2 of 2 here],IC80,[2],25 nM
same,IC70,[3],13 nM
CC(C)c1ccccc1Sc1ccc(C2CC2C(=O)N2CCC(C(=O)O)CC2)c(Cl)c1Cl (stereo in doubt; 18a) [listing 1 of 2 here],IC50,[1],9 nM
CC(C)c1ccccc1Sc1ccc(C2CC2C(=O)N2CCC(C(=O)O)CC2)c(Cl)c1Cl (stereo in doubt; 18a) [listing 2 of 2 here],IC80,[2],54 nM
same,IC70,[3],24 nM
O=C(O)C1CCCN(c2ccccc2Sc2ccc(C3CC3C(=O)NCCCN3CCCC3=O)c(Cl)c2Cl)C1 (stereo in doubt; 27) [listing 1 of 2 here],IC50,[4],33 nM
same,IC50,[1],15 nM
O=C(O)C1CCCN(c2ccccc2Sc2ccc(C3CC3C(=O)NCCCN3CCCC3=O)c(Cl)c2Cl)C1 (stereo in doubt; 27) [listing 2 of 2 here],IC80,[2],40 nM
same,IC80,[5],210 nM
same,IC70,[6],120 nM
same,IC70,[3],26 nM
O=C(O)C1CCCN(c2ccccc2Sc2ccc(C3CC3C(=O)NCCCN3CCCC3=O)c(Cl)c2Cl)C1 (stereo in doubt; 28) [listing 1 of 2 here],IC50,[4],29 nM
same,Cmax,[7],350 ng/mL
same,bioavailability,[8],27%
same,IC50,[1],10 nM
same,half-life,[9],1.2 h
O=C(O)C1CCCN(c2ccccc2Sc2ccc(C3CC3C(=O)NCCCN3CCCC3=O)c(Cl)c2Cl)C1 (stereo in doubt; 28) [listing 2 of 2 here],IC80,[2],26 nM
same,IC80,[5],199 nM
same,IC70,[6],116 nM
same,IC70,[3],21 nM
O=C(O)C1CCCN(c2ccccc2Sc2ccc(C3CC3C(=O)NCCCN3CCCC3=O)c(Cl)c2Cl)C1 (stereo in doubt; 29) [listing 1 of 2 here],IC50,[4],640 nM
same,IC50,[1],31 nM
O=C(O)C1CCCN(c2ccccc2Sc2ccc(C3CC3C(=O)NCCCN3CCCC3=O)c(Cl)c2Cl)C1 (stereo in doubt; 29) [listing 2 of 2 here],IC80,[2],142 nM
same,IC80,[5],3200 nM
same,IC70,[6],2100 nM
same,IC70,[3],97 nM
O=C(O)C1CCCN(c2ccccc2Sc2ccc(C3CC3C(=O)NCCCN3CCCC3=O)c(Cl)c2Cl)C1 (stereo in doubt; 30) [listing 1 of 2 here],IC50,[4],27 nM
same,IC50,[1],5 nM
O=C(O)C1CCCN(c2ccccc2Sc2ccc(C3CC3C(=O)NCCCN3CCCC3=O)c(Cl)c2Cl)C1 (stereo in doubt; 30) [listing 2 of 2 here],IC80,[2],19 nM
same,IC80,[5],133 nM
same,IC70,[6],89 nM
same,IC70,[3],10 nM
